# Data from paper PMC9102847, “7-Aminoalkoxy-Quinazolines from Epigenetic Focused Libraries Are Potent and Selective Inhibitors of DNA Methyltransferase 1” (Molecules, 2022).
# Where two headings read alike, the source gives them in different places.
# Tests used:
# DNMT3A [1] = biological target: T1, DNMT3A (Homo sapiens, UniProt Q9Y6K1); design: method as in PMID 34790902; details: Pappalardi et al.; cited from earlier work
# T1 construct: purchased Reaction Biology Corporation
# DNMT3A/3L = test system: DNMT3A/3L; design: method as in PMID 29953809; details: Figure 1, activity as available in the literature; cited from earlier work
# DNMT3B [2] = biological target: T2, DNMT3B (Homo sapiens, UniProt Q9UBC3); design: method as in PMID 34790902; details: Pappalardi et al.; cited from earlier work
# T2 construct: purchased Reaction Biology Corporation
# DNMT3B/3L = test system: DNMT3B/3L; design: method as in PMID 29953809; details: Figure 1, activity as available in the literature; cited from earlier work
# G9a [3] = details: Figure 1, activity as available in the literature; cited from earlier work
# [4] = test system: human breast adenocarcinoma (MDA-MB-231) cells; design: method as in PMID 21780790; details: read-out: cell toxicity EC50; cited from earlier work
# DNMT3A [5] = biological target: T1, DNMT3A; experiment: HotSpot radioisotope methyltransferase inhibition assay, DNMT3A; type: biochemical
# Description: The inhibition of the enzymatic activity of DNMT1, DNMT3A, and DNMT3B was tested using the HotSpotSM platform for methyltransferase assays available at Reaction Biology Corporation. HotSpotSM is a low volume radioisotope-based assay that uses tritium-labeled AdoMet (3H-SAM) as a methyl donor. The three test compounds diluted in dimethyl sulfoxide were added using acoustic technology (Echo550, Labcyte, San Jose, CA, USA) into an enzyme/substrate mixture in the nano-liter range. The corresponding reactions were commenced by adding 3H-SAM and incubated at 30 °C. Total final methylations on the substrate (Poly dI-dC in DNMT1, 3A, and 3B assays) were identified by a filter binding method implemented in Reaction Biology. Data analysis was done with Graphed Prism software (La Jolla, CA, USA) for curve fits. The enzymatic inhibition assays were carried out at 1 μM of SAM. In all assays, SAH was used as a standard positive control. The three compounds were tested first with DNMT1 at one 100 μM concentration in duplicate. […] The research group has recently contracted the screening services of Reaction Biology Corporation to identify a novel DNMTi.
# DNMT3B [6] = biological target: T2, DNMT3B; experiment: HotSpot radioisotope methyltransferase inhibition assay, DNMT3B; type: biochemical; details: for inhibition of DNMT3B (in words): enzymatic inhibition assays
# G9a [7] = test system: G9a; design: method as in PMID 21780790; details: enzymatic, in vitro; cited from earlier work
# [8] = test system: H3K9me2 levels in human breast adenocarcinoma (MDA-MB-231) cells; design: method as in PMID 21780790; details: read-out: potency in reducing H3K9me2 levels; cited from earlier work
# DNMT1 [9] = biological target: T3, DNMT1 (Homo sapiens, UniProt P26358); experiment: HotSpot radioisotope methyltransferase inhibition assay, DNMT1; type: biochemical; details: for relative enzymatic activity of DNMT1 as percentages: 100 μM compound, mean of two measurements ± standard deviation; for IC50: 10-concentration IC50, 1 μM SAM, mean of two measurements; for DNMT1: % inhibition / inhibition at 100 µM: single concentration 100 µM, duplicate, 1 μM SAM
# T3 construct: purchased Reaction Biology Corporation
# T3 sequence (P26358 whole entry): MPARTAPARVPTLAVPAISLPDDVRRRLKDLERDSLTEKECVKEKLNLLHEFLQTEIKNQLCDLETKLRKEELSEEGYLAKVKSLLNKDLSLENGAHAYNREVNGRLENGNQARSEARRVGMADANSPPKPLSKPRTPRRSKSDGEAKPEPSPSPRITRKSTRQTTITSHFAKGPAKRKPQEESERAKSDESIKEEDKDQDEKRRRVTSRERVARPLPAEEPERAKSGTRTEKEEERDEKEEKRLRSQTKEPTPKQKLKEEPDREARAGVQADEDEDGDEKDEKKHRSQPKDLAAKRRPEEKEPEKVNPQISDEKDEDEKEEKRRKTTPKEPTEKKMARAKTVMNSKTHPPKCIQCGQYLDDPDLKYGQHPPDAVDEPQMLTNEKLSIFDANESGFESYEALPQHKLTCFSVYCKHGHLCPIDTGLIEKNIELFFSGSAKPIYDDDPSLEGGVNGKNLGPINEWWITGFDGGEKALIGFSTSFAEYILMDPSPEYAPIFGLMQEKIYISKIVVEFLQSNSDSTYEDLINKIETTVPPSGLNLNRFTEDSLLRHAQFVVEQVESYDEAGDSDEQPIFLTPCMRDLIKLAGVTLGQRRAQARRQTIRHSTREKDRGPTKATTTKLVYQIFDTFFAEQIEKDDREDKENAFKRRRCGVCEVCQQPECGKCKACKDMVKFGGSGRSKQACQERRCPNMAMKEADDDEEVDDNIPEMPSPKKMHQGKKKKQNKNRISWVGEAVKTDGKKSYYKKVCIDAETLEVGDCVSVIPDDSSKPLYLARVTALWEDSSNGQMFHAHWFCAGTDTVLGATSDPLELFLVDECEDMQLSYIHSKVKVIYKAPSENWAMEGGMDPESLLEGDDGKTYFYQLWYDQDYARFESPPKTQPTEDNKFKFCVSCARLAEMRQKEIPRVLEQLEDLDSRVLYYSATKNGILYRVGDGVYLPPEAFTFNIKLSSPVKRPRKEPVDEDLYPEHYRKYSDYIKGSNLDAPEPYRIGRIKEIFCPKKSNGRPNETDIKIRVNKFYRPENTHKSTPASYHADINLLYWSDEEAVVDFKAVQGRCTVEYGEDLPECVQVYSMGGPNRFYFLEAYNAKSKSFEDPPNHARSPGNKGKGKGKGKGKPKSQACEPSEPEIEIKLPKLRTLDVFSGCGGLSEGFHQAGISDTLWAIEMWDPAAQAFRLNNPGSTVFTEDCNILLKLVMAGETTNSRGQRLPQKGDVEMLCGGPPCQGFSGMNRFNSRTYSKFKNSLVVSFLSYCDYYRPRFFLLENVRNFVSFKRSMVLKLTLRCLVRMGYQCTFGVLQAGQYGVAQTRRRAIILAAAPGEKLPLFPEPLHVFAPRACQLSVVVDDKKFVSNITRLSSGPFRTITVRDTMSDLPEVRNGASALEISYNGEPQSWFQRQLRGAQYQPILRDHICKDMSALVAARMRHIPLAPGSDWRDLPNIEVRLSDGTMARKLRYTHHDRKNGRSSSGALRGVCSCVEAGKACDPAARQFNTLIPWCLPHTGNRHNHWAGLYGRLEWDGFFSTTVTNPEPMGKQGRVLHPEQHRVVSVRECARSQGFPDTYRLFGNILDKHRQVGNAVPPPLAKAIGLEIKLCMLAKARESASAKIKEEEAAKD
# DNMT1 [10] = biological target: T3, DNMT1; design: method as in PMID 29953809; details: Figure 1, activity as available in the literature; cited from earlier work
# DNMT3B [11] = biological target: T2, DNMT3B; design: method as in PMID 29953809; details: Figure 1, activity as available in the literature; cited from earlier work
# [12] = test system: human acute myeloid leukemia xenograft; design: method as in PMID 29953809; details: human acute myeloid leukemia xenograft in a mouse model; cited from earlier work
# T1 sequence (Q9Y6K1 whole entry, looked up): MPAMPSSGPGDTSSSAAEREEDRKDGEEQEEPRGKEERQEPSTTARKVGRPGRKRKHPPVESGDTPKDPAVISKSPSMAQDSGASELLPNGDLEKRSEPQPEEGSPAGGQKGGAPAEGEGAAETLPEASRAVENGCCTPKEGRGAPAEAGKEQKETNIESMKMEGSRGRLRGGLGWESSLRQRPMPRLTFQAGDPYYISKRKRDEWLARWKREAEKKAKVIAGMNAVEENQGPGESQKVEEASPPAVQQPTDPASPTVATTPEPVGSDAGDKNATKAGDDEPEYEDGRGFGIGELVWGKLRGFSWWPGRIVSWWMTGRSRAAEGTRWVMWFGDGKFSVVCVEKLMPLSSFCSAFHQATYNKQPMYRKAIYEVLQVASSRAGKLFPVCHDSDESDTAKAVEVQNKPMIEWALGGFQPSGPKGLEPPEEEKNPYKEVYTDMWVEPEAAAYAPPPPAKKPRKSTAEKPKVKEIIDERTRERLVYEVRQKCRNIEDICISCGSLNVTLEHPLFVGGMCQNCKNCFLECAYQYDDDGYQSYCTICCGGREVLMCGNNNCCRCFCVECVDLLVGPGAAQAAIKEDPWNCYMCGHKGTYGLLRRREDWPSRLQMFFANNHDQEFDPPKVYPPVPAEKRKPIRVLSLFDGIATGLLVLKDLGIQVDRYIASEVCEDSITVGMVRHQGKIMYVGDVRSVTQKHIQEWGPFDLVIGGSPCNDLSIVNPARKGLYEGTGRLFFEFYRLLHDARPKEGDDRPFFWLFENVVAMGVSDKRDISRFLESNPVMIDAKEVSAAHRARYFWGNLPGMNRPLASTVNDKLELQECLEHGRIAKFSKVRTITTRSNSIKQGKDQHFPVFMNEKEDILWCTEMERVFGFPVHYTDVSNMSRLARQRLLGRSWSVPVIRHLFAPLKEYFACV
smiles,measurement,setting,value
CCc1c(C#N)c(SC(C(N)=O)c2ccccc2)nc(N2CCC(N)CC2)c1C#N (stereo not drawn) [compound 5],inhibition of DNMT3A (in words),DNMT3A [1],did not inhibit
same,IC50,DNMT3A/3L,> 100000 nM
same,inhibition of DNMT3B (in words),DNMT3B [2],did not inhibit
same,IC50,DNMT3B/3L,> 100000 nM
COc1cc2c(NC3CCN(C(C)C)CC3)cc(C3CCCCC3)nc2cc1OCCCN1CCCC1 [compound 7],IC50,G9a [3],0.7 nM
COc1cc2c(NC3CCN(CC4CCCCC4)CC3)nc(N3CCCN(C(C)C)CC3)nc2cc1OCCCN1CCCCC1 [compound 13],EC50,[4],2800 nM
same,IC50,DNMT3A [5],14700 nM
same,inhibition of DNMT3B (in words),DNMT3B [6],none of them inhibited
same,IC50,DNMT3B [6]; read-out: DNMT3B IC50,> 100000 nM
same,IC50,G9a [7],4 nM
same,IC50,[8],25 nM
same,relative enzymatic activity of DNMT1 as percentages,DNMT1 [9],0.7 ± 0.02%
same,IC50,DNMT1 [9],81 nM
same,DNMT1: % inhibition,DNMT1 [9],99.3%
same,inhibition at 100 µM,DNMT1 [9],> 99%
"Nc1ncn([C@H]2C[C@H](O)[C@@H](CO)O2)c(=O)n1 [compound 2, 5-aza-2′-deoxycytidine]",IC50,G9a [3],> 10000 nM
"Nc1ncnc2c1ncn2[C@@H]1O[C@H](CSCC[C@H](N)C(=O)O)[C@@H](O)[C@H]1O [SAH, S-adenosyl-L-homocysteine]",IC50,DNMT3A [5],100 nM
same,IC50,DNMT3B [6],30 nM
same,IC50,DNMT3B [2],90 nM
COc1cc2c(NC3CCN(C4CCCCC4)CC3)nc(N3CCCN(C(C)C)CC3)nc2cc1OCCCN1CCCCC1 [compound 12],EC50,[4],3300 nM
same,IC50,DNMT3A [5],4870 nM
same,inhibition of DNMT3B (in words),DNMT3B [6],none of them inhibited
same,IC50,DNMT3B [6]; read-out: DNMT3B IC50,> 100000 nM
same,IC50,G9a [7],6 nM
same,IC50,[8],26 nM
same,relative enzymatic activity of DNMT1 as percentages,DNMT1 [9],0.3 ± 0.10%
same,IC50,DNMT1 [9],30 nM
same,DNMT1: % inhibition,DNMT1 [9],99.7%
same,inhibition at 100 µM,DNMT1 [9],> 99%
COc1cc2c(NC3CCN(C(C)C)CC3)nc(N3CCC(F)(F)CC3)nc2cc1OCCCN1CCCC1 [compound 11],IC50,DNMT1 [10],> 50000 nM
COc1cc2nc(N3CCCN(C)CC3)nc(NC3CCN(Cc4ccccc4)CC3)c2cc1OC [compound 9],IC50,DNMT1 [10],> 10000 nM
"COc1ccc(Cl)cc1C(=O)NCCc1ccc(S(=O)(=O)NC(=O)NC2CCCCC2)cc1 [compound 4, Glyburide]",IC50,DNMT3B [11],> 100000 nM
"Nc1ncn([C@@H]2O[C@H](CO)[C@@H](O)[C@H]2O)c(=O)n1 [compound 1, 5-azacitidine]",IC50,G9a [3],> 10000 nM
COc1cc2c(Nc3ccc(NC(=O)c4ccccc4)cc3)ncnc2cc1OCCCN1CCOCC1 [compound 14],relative enzymatic activity of DNMT1 as percentages,DNMT1 [9],92.6 ± 2.40%
same,inhibition at 100 µM,DNMT1 [9],7.4%
"C[C@@H]1O[C@@H](CC(=O)O)CC2=C1C(=O)c1c(O)cccc1C2=O [compound 6, nanaomycin A]",IC50,DNMT1 [10],> 10000 nM
Cc1cc(Nc2ccc(NC(=O)c3ccc(Nc4ccnc5ccccc45)cc3)cc2)nc(N)n1 [compound 3],IC50,G9a [3],> 10000 nM
same,IC50,DNMT3B [2],7000 nM
COc1cc2c(NC3CCN(C)CC3)cc(-c3ccc(C)o3)nc2cc1OCCCN1CCCC1 [compound 8],tumor growth inhibition,[12],70%
